# Measured values as given in ChEMBL document CHEMBL1153157, “Discovery of benzimidazole-diamide finger loop (Thumb Pocket I) allosteric inhibitors of HCV NS5B polymerase: Implementing parallel synthesis for rapid linker optimization” (Bioorg Med Chem Lett, 2010).
# The source made the active and inactive calls. The rule behind the calls is not given here.
# Assays:
# [1] = test system: Hepatitis C virus; assay: Inhibition of N-terminal hexahistidine tagged HCV 1b NS5B polymerase expressed in baculovirus infected Sf21 cells after 90 mins by SPA; design: species or system Hepatitis C virus subtype 1b; conditions: Sf21, 1.5 h
# [2] = test system: Hepatitis C virus; assay: Antiviral activity against Hepatitis C virus subtype 1b by cell-based replicon assay; format: functional, organism-based, Hepacivirus hominis; conditions: genotype 1b
# [3] = test system: Enterovirus C; assay: Inhibition of Poliovirus RNA dependent RNA polymerase expressed in Escherichia coli BL21 (DE3) up to 200 uM after 90 mins by SPA
# [4] = target: Cytochrome P450 2D6 (Homo sapiens, UniProt P10635); assay: Inhibition of human liver CYP2D6; format: ADME
# [5] = Lipophilicity, log D at pH 7.4; format: physicochemical; conditions: buffer
# [6] = Aqueous solubility at pH 7.2; format: physicochemical; conditions: buffer
# [7] = target: Cytochrome P450 3A4 (Homo sapiens, UniProt P08684); assay: Inhibition of human liver CYP3A4; format: ADME
# [8] = target: T1, Cytochrome P450 1A2 (Homo sapiens, UniProt P05177); assay: Inhibition of human liver CYP1A2; format: ADME
# T1 sequence (P05177 whole entry): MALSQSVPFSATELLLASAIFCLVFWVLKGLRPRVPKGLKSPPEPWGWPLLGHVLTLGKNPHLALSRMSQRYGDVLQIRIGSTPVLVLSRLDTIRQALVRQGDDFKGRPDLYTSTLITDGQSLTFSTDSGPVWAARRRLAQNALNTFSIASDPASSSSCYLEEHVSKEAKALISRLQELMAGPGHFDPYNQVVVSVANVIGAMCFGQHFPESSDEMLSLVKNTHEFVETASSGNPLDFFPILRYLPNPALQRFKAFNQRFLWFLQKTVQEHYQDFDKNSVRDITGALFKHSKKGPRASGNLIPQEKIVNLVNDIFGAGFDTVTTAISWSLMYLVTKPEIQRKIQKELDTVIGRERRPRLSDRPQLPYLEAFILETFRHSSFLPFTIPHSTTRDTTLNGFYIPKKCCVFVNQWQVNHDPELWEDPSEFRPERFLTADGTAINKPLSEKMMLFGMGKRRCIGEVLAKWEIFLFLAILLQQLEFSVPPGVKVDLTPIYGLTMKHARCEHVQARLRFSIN
# [9] = organism: Bos taurus; assay: Inhibition of calf thymus DNA-dependent RNA polymerase up to 200 uM after 120 mins
# [10] = target: Cytochrome P450 2C9 (Homo sapiens, UniProt P11712); assay: Inhibition of human liver CYP2C9; format: ADME
# [11] = (§1) Half life in human liver microsomes at 10 uM; format: ADME, Microsome; conditions: liver microsomes
# [12] = target: Cytochrome P450 2C19 (Homo sapiens, UniProt P33261); assay: Inhibition of human liver CYP2C19; format: ADME
# [13] = test system: Liver microsomes; assay: as §1; format: ADME, Microsome; conditions: microsomes, 10 µM
# Sequence of Cytochrome P450 3A4 (P08684 whole entry): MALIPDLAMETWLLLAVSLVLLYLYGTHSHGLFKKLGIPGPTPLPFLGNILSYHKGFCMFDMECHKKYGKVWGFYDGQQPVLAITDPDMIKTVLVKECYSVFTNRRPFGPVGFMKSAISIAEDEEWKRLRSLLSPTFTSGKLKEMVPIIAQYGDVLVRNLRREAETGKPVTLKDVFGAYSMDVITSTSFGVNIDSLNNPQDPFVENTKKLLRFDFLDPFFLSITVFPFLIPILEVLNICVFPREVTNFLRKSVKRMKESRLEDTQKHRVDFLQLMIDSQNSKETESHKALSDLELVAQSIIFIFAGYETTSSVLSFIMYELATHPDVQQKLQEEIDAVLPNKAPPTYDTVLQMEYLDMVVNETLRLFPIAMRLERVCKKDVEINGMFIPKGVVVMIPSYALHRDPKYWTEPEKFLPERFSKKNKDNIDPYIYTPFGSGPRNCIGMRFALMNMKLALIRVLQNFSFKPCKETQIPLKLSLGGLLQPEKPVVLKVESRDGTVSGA
# Sequence of Cytochrome P450 2C9 (P11712 whole entry): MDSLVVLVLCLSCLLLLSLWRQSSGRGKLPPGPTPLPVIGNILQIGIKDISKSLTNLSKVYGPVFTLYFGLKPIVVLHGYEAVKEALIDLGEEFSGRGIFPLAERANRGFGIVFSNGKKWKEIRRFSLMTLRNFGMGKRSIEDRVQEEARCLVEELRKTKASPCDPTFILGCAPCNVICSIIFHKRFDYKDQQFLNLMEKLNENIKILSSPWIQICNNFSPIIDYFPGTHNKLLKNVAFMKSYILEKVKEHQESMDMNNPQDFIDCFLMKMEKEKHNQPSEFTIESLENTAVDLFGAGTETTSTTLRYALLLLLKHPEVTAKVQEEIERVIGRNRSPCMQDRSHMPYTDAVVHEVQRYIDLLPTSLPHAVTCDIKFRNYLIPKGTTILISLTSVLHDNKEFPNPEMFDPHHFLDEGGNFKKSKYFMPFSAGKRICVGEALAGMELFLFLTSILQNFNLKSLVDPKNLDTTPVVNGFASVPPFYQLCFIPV
# Sequence of Cytochrome P450 2D6 (P10635 whole entry): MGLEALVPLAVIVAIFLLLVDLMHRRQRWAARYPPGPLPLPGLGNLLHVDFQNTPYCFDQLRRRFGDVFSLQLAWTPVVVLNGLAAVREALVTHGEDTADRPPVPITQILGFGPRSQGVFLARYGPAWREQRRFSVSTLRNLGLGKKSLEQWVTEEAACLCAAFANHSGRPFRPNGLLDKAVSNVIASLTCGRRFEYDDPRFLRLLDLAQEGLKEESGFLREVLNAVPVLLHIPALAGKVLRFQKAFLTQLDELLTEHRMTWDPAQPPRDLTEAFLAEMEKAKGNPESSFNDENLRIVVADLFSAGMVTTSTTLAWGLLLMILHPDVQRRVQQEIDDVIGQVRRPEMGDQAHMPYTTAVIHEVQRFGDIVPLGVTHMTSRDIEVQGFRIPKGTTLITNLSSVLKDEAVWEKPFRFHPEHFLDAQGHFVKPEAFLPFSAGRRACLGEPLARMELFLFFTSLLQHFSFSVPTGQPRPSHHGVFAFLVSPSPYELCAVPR
# Sequence of Cytochrome P450 2C19 (P33261 whole entry): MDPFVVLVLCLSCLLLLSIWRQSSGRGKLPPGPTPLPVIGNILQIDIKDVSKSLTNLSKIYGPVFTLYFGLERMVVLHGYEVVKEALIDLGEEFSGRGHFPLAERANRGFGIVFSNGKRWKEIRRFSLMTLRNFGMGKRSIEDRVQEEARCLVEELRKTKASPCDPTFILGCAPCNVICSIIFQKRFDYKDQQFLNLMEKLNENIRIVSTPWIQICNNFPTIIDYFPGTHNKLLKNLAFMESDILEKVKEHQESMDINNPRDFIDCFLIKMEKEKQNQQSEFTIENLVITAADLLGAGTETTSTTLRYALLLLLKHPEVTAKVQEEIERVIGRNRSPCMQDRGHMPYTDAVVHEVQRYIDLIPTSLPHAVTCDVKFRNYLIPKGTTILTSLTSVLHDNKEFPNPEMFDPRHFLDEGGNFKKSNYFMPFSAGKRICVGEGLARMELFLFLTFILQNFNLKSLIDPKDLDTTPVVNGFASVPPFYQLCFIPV
Compound,IC50 [1] [nM],EC50 [2] [nM],further results
CC(NC(=O)c1ccc2c(c1)nc(-c1ccoc1)n2C1CCCCC1)C(=O)Nc1ccc(/C=C/C(=O)O)cc1 (racemic),340,13000,–
CC(=O)COc1ccc(NC(=O)C(C)NC(=O)c2ccc3c(c2)nc(-c2ccoc2)n3C2CCCCC2)cc1 (racemic),900,–,–
C[C@@H](NC(=O)c1ccc2c(c1)nc(-c1ccoc1)n2C1CCCCC1)C(=O)Nc1ccc2oc(C(=O)O)cc2c1,90,> 42000,–
O=C(O)COc1ccc2[nH]cc(C[C@H](NC(=O)c3ccc4c(c3)nc(-c3ccoc3)n4C3CCCCC3)C(=O)O)c2c1,19,–,–
CC[C@@H](NC(=O)c1ccc2c(c1)nc(-c1ccoc1)n2C1CCCCC1)C(=O)Nc1ccc(/C=C/C(=O)O)cc1,400,6500,–
O=C(O)/C=C/c1ccc(NC(=O)CNC(=O)c2ccc3c(c2)nc(-c2ccoc2)n3C2CCCCC2)cc1,280,41000,–
C[C@@H](NC(=O)c1ccc2c(c1)nc(-c1ccoc1)n2C1CCCCC1)C(=O)Nc1ccc(/C=C/C(=O)O)cc1,130,6900,Activity [3]: inactive; IC50 [4]: > 30000 nM; logD [5]: 2.2; solubility [6]: 171 µg/mL; IC50 [7]: 12300 nM; IC50 [8]: > 30000 nM; Activity [9]: inactive; IC50 [10]: > 30000 nM; half-life at 10 µM [11]: 44 min; IC50 [12]: > 30000 nM
CC(NC(=O)c1ccc2c(c1)nc(-c1ccoc1)n2C1CCCCC1)C(=O)Nc1ccc(-c2ccc(C(=O)O)o2)cc1 (racemic),450,28000,–
Cn1c(-c2ccoc2)c(C2CCCCC2)c2ccc(C(=O)N[C@@H](Cc3c[nH]c4ccc(O)cc34)c3cscn3)cc21,100,50,–
CC(NC(=O)c1ccc2c(c1)nc(-c1ccoc1)n2C1CCCCC1)C(=O)Nc1ccc(C(=O)O)cc1 (racemic),390,30000,–
CC(NC(=O)c1ccc2c(c1)nc(-c1ccoc1)n2C1CCCCC1)C(=O)Nc1cccc(/C=C/C(=O)O)c1 (racemic),900,–,–
CC(NC(=O)c1ccc2c(c1)nc(-c1ccoc1)n2C1CCCCC1)C(=O)Nc1cccc(C(=O)O)c1 (racemic),1610,–,–
C[C@@H](NC(=O)c1ccc2c(c1)nc(-c1ccoc1)n2C1CCCCC1)C(=O)Nc1ccc2[nH]c(C(=O)O)cc2c1,60,> 40000,–
C[C@H](NC(=O)c1ccc2c(c1)nc(-c1ccoc1)n2C1CCCCC1)C(=O)Nc1ccc(/C=C/C(=O)O)cc1,360,25000,–
CC(NC(=O)c1ccc2c(c1)nc(-c1ccoc1)n2C1CCCCC1)C(=O)Nc1ccc(CC(=O)O)cc1 (racemic),1520,–,–
O=C(N[C@@H](Cc1c[nH]c2ccc(O)cc12)c1cscn1)c1ccc2c(c1)nc(-c1ccoc1)n2C1CCCCC1,300,1700,IC50 [4]: 4000 nM; logD [5]: 3.8; solubility [6]: < 0.07 µg/mL; IC50 [7]: 400 nM; IC50 [8]: > 30000 nM; IC50 [10]: 2300 nM; t1/2 [13]: 26 min; IC50 [12]: 2400 nM
